# Source: patent US4024277A, “Phosphoro-aminosulfenyl derivatives of benzofuran carbamates” (priority 1975, dated 1977)
# Assays:
# plum curculio [1] = assay: Initial insecticidal activity, plum curculio; format: in vivo, Conotrachelus nenuphar (Herbst); conditions: Conotrachelus nenuphar, 48-hour exposure, read-out: % Kill, Plum Curculio
# How it was run: (§1)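 Candidate insecticide solutions were sprayed or dipped onto plants or containers, infested before or after treatment depending on species. Mortality was read after a 48-hour exposure, alongside a solvent-only control.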
# confused flour beetle [2] = assay: Initial insecticidal activity, confused flour beetle; format: in vivo, Tribolium confusum Jacquelin duVal; conditions: Tribolium confusum, 48-hour exposure, read-out: % Kill, Confused Flour Beetle
# How it was run: as §1
# Mexican bean beetle [3] = assay: Initial insecticidal activity, Mexican bean beetle; format: in vivo, Epilachna varivestis Mulsant; conditions: Epilachna varivestis, 48-hour exposure, read-out: % Kill, Mexican Bean Beetle
# How it was run: as §1
# pea aphid [4] = assay: Initial insecticidal activity, pea aphid; format: in vivo, Acyrthosiphon pisum (Harris); conditions: Acyrthosiphon pisum, 48-hour exposure, read-out: % Kill, Pea Aphid
# How it was run: as §1
# southern armyworm [5] = assay: Initial insecticidal activity, southern armyworm; format: in vivo, Spodoptera eridania (Cramer); conditions: Spodoptera eridania, 48-hour exposure, read-out: % Kill, Southern Armyworm
# How it was run: as §1
# large milkweed bug = assay: Seven-day residual insecticidal activity, milkweed bug; format: in vivo, Oncopeltus fasciatus (Dallas); conditions: Oncopeltus fasciatus, 48-hour exposure, read-out: % Kill, Milkweed Bug
# Source text: (§2) b. Seven-Day Residual Insecticidal Activity
# (§3) In this test, a candidate insecticide, in solution, is applied to uninfested plants or containers by dipping or spraying. A seven-day holding period is necessary before infestation. A 48-hour exposure period is observed before evaluation of the tests. The insect species used in this type of test are the same as those listed under initial activity.
# plum curculio [6] = assay: Seven-day residual insecticidal activity, plum curculio; format: in vivo, Conotrachelus nenuphar (Herbst); conditions: Conotrachelus nenuphar, 48-hour exposure, read-out: % Kill, Plum Curculio
# Source text: as §2, §3
# confused flour beetle [7] = assay: Seven-day residual insecticidal activity, confused flour beetle; format: in vivo, Tribolium confusum Jacquelin duVal; conditions: Tribolium confusum, 48-hour exposure, read-out: % Kill, Confused Flour Beetle
# Source text: as §2, §3
# Mexican bean beetle [8] = assay: Seven-day residual insecticidal activity, Mexican bean beetle; format: in vivo, Epilachna varivestis Mulsant; conditions: Epilachna varivestis, 48-hour exposure, read-out: % Kill, Mexican Bean Beetle
# Source text: as §2, §3
# pea aphid [9] = assay: Seven-day residual insecticidal activity, pea aphid; format: in vivo, Acyrthosiphon pisum (Harris); conditions: Acyrthosiphon pisum, 48-hour exposure, read-out: % Kill, Pea Aphid
# Source text: as §2, §3
# southern armyworm [10] = assay: Seven-day residual insecticidal activity, southern armyworm; format: in vivo, Spodoptera eridania (Cramer); conditions: Spodoptera eridania, 48-hour exposure, read-out: % Kill, Southern Armyworm
# Source text: as §2, §3
# twospotted spider mite [11] = assay: Seven-day residual insecticidal activity, twospotted spider mite; format: in vivo, Tetranychus urticae Koch; conditions: Tetranychus urticae, 48-hour exposure, read-out: % Kill, Twospotted Spider Mite
# Source text: as §2, §3
# Mexican bean beetle [12] = assay: Systemic insecticidal activity (soil/water), Mexican bean beetle; format: in vivo, Epilachna varivestis Mulsant; conditions: Epilachna varivestis, 48-hour exposure, read-out: % Kill, Mexican Bean Beetle
# How it was run: (§4)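 Compound solution applied to soil of uninfested pinto bean or broad bean seedlings, host chosen by insect species. Usually a 72-hour translocation period preceded infestation, then a 48-hour exposure before evaluation.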
# twospotted spider mite [13] = assay: Systemic insecticidal activity (soil/water), twospotted spider mite; format: in vivo, Tetranychus urticae Koch; conditions: Tetranychus urticae, 48-hour exposure, read-out: % Kill, Twospotted Spider Mite
# How it was run: as §4
# house flies = assay: Level I immersion test, house flies; format: in vivo, Musca domestica Linnaeus; conditions: HF, 5 mg/milliliter
# Procedure: (§5) e. Insecticidal Activity Against House Flies and German Cockroaches
# Compounds of this invention were tested in a Level I test at 5 mg. of active compounds/milliliter of a solution of 40% acetone -- 60% water.
# In this test a group of ten house flies (Musca domestica Linnaeus) were completely immersed in 25 ml. of the insecticidal test solution. After 10 seconds of immersion, the test solution is removed. The house flies are then transferred to holding cages lines with paper toweling. In the case of the house flies, the knockdown counts were recorded 10 minutes after termination of the immersion. The percent kill was recorded after 18-24 hours.
# [14] = test system: female house flies (resistant); assay: Level II topical test, house flies; format: in vivo, Musca domestica Linnaeus; conditions: HF (female, resistant), one microgram topically per insect
# Procedure: as §5
# (§6) In a Level II test the compounds of this invention were tested for insecticidal activity against female house flies (resistant) and male German cockroaches. Ten insects were anesthetized with carbon dioxide and placed in a container for about 2 hours, during which time the insects recovered to normal activity. The container confining the insects is fitted with a plunger which is used to force the insects against a nylon mesh at one end of the container. One microliter of an acetone solution containing one microgram of the candidate insecticide was applied topically to each insect. The plunger was withdrawn and the insects were allowed to move freely about the container. Knockdown counts were recorded 10 minutes after treatment of house flies and 30 minutes after treatment of cockroaches.
# German cockroaches = assay: Level II topical test, German cockroaches; format: in vivo, Blattella germanica (Linnaeus); conditions: GC (male), one microgram topically per insect
# Procedure: as §5, §6
smiles,measurement,setting,value
"CC(C)OP(=O)(OC(C)C)N(C)SN(C)C(=O)Oc1cccc2c1OC(C)(C)C2 [6(c), 2,3-Dihydro-2,2-dimethyl-7-benzofuranyl [(N-diisopropoxyphosphinyl) (N-methyl)aminosulfenyl][methyl]carbamate]",mortality at 39 ppm,plum curculio [1]; 39 ppm,0%
same,mortality at 156 ppm,plum curculio [1]; 156 ppm,45%
same,mortality at 1250 ppm,plum curculio [1]; 1250 ppm,100%
same,mortality at 39 ppm,confused flour beetle [2]; 39 ppm,0%
same,mortality at 156 ppm,confused flour beetle [2]; 156 ppm,0%
same,mortality at 1250 ppm,confused flour beetle [2]; 1250 ppm,18%
same,mortality at 39 ppm,Mexican bean beetle [3]; 39 ppm,100%
same,mortality at 156 ppm,Mexican bean beetle [3]; 156 ppm,94%
same,mortality at 1250 ppm,Mexican bean beetle [3]; 1250 ppm,100%
same,mortality at 39 ppm,pea aphid [4]; 39 ppm,28%
same,mortality at 156 ppm,pea aphid [4]; 156 ppm,60%
same,mortality at 1250 ppm,pea aphid [4]; 1250 ppm,100%
same,mortality at 39 ppm,southern armyworm [5]; 39 ppm,6%
same,mortality at 156 ppm,southern armyworm [5]; 156 ppm,73%
same,mortality at 1250 ppm,southern armyworm [5]; 1250 ppm,100%
same,mortality at 39 ppm,large milkweed bug; 39 ppm,5%
same,mortality at 156 ppm,large milkweed bug; 156 ppm,25%
same,mortality at 1250 ppm,large milkweed bug; 1250 ppm,100%
same,mortality at 39 ppm,plum curculio [6]; 39 ppm,0%
same,mortality at 156 ppm,plum curculio [6]; 156 ppm,0%
same,mortality at 1250 ppm,plum curculio [6]; 1250 ppm,100%
same,mortality at 39 ppm,confused flour beetle [7]; 39 ppm,0%
same,mortality at 156 ppm,confused flour beetle [7]; 156 ppm,0%
same,mortality at 1250 ppm,confused flour beetle [7]; 1250 ppm,0%
same,mortality at 39 ppm,Mexican bean beetle [8]; 39 ppm,6%
same,mortality at 156 ppm,Mexican bean beetle [8]; 156 ppm,38%
same,mortality at 1250 ppm,Mexican bean beetle [8]; 1250 ppm,100%
same,mortality at 39 ppm,pea aphid [9]; 39 ppm,0%
same,mortality at 156 ppm,pea aphid [9]; 156 ppm,0%
same,mortality at 1250 ppm,pea aphid [9]; 1250 ppm,5%
same,mortality at 39 ppm,southern armyworm [10]; 39 ppm,0%
same,mortality at 156 ppm,southern armyworm [10]; 156 ppm,0%
same,mortality at 1250 ppm,southern armyworm [10]; 1250 ppm,7%
same,mortality at 39 ppm,twospotted spider mite [11]; 39 ppm,0%
same,mortality at 156 ppm,twospotted spider mite [11]; 156 ppm,1%
same,mortality at 1250 ppm,twospotted spider mite [11]; 1250 ppm,0%
same,mortality at 39 ppm,Mexican bean beetle [12]; 39 ppm,100%
same,mortality at 156 ppm,Mexican bean beetle [12]; 156 ppm,100%
same,mortality at 39 ppm,twospotted spider mite [13]; 39 ppm,4%
same,mortality at 156 ppm,twospotted spider mite [13]; 156 ppm,19%
same,% Knockdown,house flies; 10 minutes after immersion,100%
same,mortality at 5000 µg/mL,"house flies; Musca domestica, after 18-24 hours, read-out: % Kill",100%
same,% Knockdown,[14]; 10 minutes,0%
same,mortality at 0.001 mg,"[14]; Musca domestica, topical, read-out: % Kill",27%
same,mortality at 0.001 mg,"German cockroaches; Blattella germanica, topical, read-out: % Kill",0%
same,% Knockdown,German cockroaches; 30 minutes,0%
